Test results as given in patent US6005007A, “Retinoids, methods for their production and use” (priority 1997, dated 1999).
Like-named read-outs stand apart in the source and are kept apart here.

Tests used:
ME 180 = assay: Incorporation of 3H-thymidine, ME 180; type: cell-based; conditions: Homo sapiens
AML-193 = assay: Incorporation of 3H-thymidine, AML-193; conditions: Homo sapiens, read-out: TdR IC50 AML-193 (nM)
RARα [1] = target: T1, RARα (Homo sapiens, UniProt P10276); assay: Receptor binding, RARα; conditions: tritiated retinoid competition
T1 sequence (P10276 1-462): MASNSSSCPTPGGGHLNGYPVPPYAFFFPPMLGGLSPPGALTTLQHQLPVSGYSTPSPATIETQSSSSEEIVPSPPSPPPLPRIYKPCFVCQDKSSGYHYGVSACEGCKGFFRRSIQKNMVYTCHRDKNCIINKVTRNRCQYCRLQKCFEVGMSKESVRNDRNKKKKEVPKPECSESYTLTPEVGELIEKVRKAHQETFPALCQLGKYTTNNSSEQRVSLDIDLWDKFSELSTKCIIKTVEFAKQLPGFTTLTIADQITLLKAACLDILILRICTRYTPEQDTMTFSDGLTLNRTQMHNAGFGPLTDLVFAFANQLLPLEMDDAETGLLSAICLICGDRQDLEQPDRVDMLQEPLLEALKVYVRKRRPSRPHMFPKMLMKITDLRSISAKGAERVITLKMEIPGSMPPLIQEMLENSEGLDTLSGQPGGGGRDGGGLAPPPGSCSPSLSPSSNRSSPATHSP

RARβ [2] = target: T2, RARβ (Homo sapiens, UniProt P10826); assay: Receptor binding, RARβ; conditions: tritiated retinoid competition
T2 sequence (P10826 1-448 isoform P10826-2): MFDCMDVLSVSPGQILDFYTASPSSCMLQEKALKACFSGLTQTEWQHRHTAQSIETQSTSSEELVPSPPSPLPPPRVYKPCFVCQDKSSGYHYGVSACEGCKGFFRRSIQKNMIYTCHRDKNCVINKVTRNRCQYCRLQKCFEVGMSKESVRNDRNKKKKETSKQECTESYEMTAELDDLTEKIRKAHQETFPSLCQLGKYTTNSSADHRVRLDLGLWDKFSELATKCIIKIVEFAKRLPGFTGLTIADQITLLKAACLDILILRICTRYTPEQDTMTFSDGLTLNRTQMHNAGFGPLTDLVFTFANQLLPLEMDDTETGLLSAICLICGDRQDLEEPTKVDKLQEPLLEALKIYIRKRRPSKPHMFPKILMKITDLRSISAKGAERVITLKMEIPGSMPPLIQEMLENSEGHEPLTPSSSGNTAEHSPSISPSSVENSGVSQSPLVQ

RARγ [3] = target: T3, RARγ (Homo sapiens, UniProt P13631); assay: Receptor binding, RARγ; conditions: tritiated retinoid competition
T3 sequence (P13631 1-454): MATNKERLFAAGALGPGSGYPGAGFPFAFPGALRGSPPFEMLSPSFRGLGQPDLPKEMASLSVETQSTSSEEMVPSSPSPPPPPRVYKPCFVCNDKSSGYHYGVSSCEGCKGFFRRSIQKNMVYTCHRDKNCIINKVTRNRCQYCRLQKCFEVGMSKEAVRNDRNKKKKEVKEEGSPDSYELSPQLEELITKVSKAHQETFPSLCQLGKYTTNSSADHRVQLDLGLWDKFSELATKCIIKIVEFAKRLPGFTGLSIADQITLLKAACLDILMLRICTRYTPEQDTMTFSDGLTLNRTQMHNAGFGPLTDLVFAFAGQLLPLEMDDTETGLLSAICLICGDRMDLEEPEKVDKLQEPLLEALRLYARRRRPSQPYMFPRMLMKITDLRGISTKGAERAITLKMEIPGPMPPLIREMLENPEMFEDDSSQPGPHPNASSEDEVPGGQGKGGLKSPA

RXRγ = target: T4, RXRγ (Mus musculus, UniProt P28705); assay: Receptor binding, RXRγ; conditions: tritiated retinoid competition
T4 construct: expressed in transfected cells; host or cells: CV-1 (African green monkey kidney fibroblasts)
T4 sequence (P28705 1-463): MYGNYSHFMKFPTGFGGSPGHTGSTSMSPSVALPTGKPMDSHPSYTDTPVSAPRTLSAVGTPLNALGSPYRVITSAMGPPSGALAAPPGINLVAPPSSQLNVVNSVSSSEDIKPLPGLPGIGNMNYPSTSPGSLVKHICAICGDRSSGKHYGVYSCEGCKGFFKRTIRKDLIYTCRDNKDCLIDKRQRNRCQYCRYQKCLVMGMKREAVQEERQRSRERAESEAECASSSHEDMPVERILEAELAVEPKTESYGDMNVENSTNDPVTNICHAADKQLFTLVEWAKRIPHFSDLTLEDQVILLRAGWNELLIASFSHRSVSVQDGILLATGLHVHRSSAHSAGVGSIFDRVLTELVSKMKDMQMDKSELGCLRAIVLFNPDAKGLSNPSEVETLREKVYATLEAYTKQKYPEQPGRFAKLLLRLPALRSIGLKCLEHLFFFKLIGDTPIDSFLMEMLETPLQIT

RARα [4] = target: T1, RARα; assay: Co-transfection assay, RARα agonist activity; type: cell-based; set-up: expressed in transfected cells; host or cells: CV-1 (African green monkey kidney fibroblasts); conditions: CV-1 cells, luciferase reporter, read-out: RARα Pot
RARβ [5] = target: T2, RARβ; assay: Co-transfection assay, RARβ agonist activity; type: cell-based; set-up: expressed in transfected cells; host or cells: CV-1 (African green monkey kidney fibroblasts); conditions: CV-1 cells, luciferase reporter, read-out: RARβ Pot
RARγ [6] = target: T3, RARγ; assay: Co-transfection assay, RARγ agonist activity; type: cell-based; set-up: expressed in transfected cells; host or cells: CV-1 (African green monkey kidney fibroblasts); conditions: CV-1 cells, luciferase reporter, read-out: RARγ Pot
RPMI 8226 = assay: Incorporation of 3H-thymidine, RPMI 8226; type: cell-based; conditions: Homo sapiens, 96 hours incubation, then 6 hours 3H-thymidine, read-out: TdR IC50 RPMI 8226

Kd (RARα [1]) | Kd (RARβ [2]) | Kd (RARγ [3]) | SMILES | IC50 (AML-193) | other results
– | – | – | CC1=C(/C=C/C(C)=C\C=C\C(C)=C\C(=O)O)C(C)(C)CCC1 [Compound 9-cis, 9-cis retinoic acid] | 113 nM | IC50 (ME 180; ME-180, read-out: TdR IC50 ME 180 (nM)): 180 nM
> 5000 nM | > 5000 nM | > 5000 nM | CC(/C=C/CC1(c2cc3c(cc2C)C(C)(C)CCC3(C)C)CC1)=C\C(=O)O [Compound 102, (2E, 4E)-6-[(3,5,5,8,8-Pentamethyl-5,6,7,8-tetrahydronaphthalen-2-yl)cyclopropan-1-yl]-3-methyl hexadienoic acid] | – | Kd (RXRγ): 153 nM; EC50 (RARα [4]): > 10000 nM; EC50 (RARβ [5]): > 10000 nM; EC50 (RARγ [6]): > 10000 nM
> 5000 nM | > 5000 nM | > 5000 nM | CC(/C=C/CC1(c2cc(C(C)(C)C)cc(C(C)(C)C)c2)CC1)=C\C(=O)O [Compound 105, (2E, 4E)-6-[(3,5-di-t-butylphenyl)cyclopropan-1-yl]-3-methyl hexadienoic acid] | – | –
– | – | – | C/C(=C\c1ccc(C(=O)O)cc1)c1ccc2c(c1)C(C)(C)CCC2(C)C [TTNPB] | 0.1 nM | IC50 (RPMI 8226): 0.2 nM; IC50 (ME 180; ME-180, 96 hours incubation, then 6 hours 3H-thymidine, read-out: TdR IC50 ME 180): 0.4 nM
